Measurements reported in patent US9126945B2, “N-(3-carbamoylphenly)-1H-pyrazole-5-carboxamide derivatives and the use thereof for controlling animal pests” (BAYER INTELLECTUAL PROPERTY GMBH, priority 2011, dated 2015).

Assay: log P by HPLC, EEC Directive 79/831 Annex V.A8, method a)
Format: physicochemical
Settings: for logP: cell prints no method mark; Ex. 40 value equals the log P given under method a)
Procedure: (§1) ^a) Note regarding the determination of the log P values and mass detection The determination of the given log P values was carried out in accordance with EEC Directive 79/831 Annex V.A8 by HPLC (High Performance Liquid Chromatography) on a reversed-phase column (C18). Agilent 1100 LC system; 50*4.6 Zorbax Eclipse Plus C18 1.8 micron; mobile phase A: acetonitrile (0.1% formic acid); mobile phase B: water (0.09% formic acid); linear gradient from 10% acetonitrile to 95% acetonitrile in 4.25 min, then 95% acetonitrile for a further 1.25 min; oven temperature 55° C.; flow rate: 2.0 ml/min Mass detection is via an Agilend MSD system.
as §1, with “mass detection:” for “mass detection”, “2.0 ml/min.” for “2.0 ml/min”

[1] = reversed-phase C18 HPLC column; HPLC-MS method a), reversed-phase C18, acetonitrile/water with formic acid
[2] = reversed-phase HPLC column (C18); cell prints no method mark; Ex. 40 value equals the log P given under method a)

Row | SMILES | logP | also measured
1 | CSc1c(C(F)(F)C(F)(F)F)nn(C)c1C(=O)O [1-Methyl-4-(methylsulphanyl)-3-(pentafluoroethyl)-1H-pyrazole-5-carboxylic acid] | – | chromatographic logP (reversed-phase HPLC column (C18), HPLC-MS, method note not marked): 3.51
2 | Cn1nc(C(F)(F)C(F)(F)F)c(C(F)(F)F)c1C(=O)Nc1ccc(Cl)c(C(=O)O)c1 [2-Chloro-5-({[1-methyl-3-(pentafluoroethyl)-4-(trifluoromethyl)-1H-pyrazol-5-yl]carbonyl}amino)benzenecarboxylic acid] | – | chromatographic logP [1]: 3.18
3 | N#CC1(NC(=O)c2cc([N+](=O)[O-])ccc2Cl)CC1 [2-chloro-N-(1-cyanocyclopropyl)-5-nitrobenzamide] | – | chromatographic logP [1]: 1.52
4 | Cn1nc(C2(Cl)CC2)c(Cl)c1C(=O)O [4-Chloro-3-(1-chlorocyclopropyl)-1-methyl-1H-pyrazole-5-carboxylic acid] | – | chromatographic logP [1]: 1.9
5 | Cn1nc(C2(F)CC2)c(Cl)c1C(=O)O [4-Chloro-3-(1-fluorocyclopropyl)-1-methyl-1H-pyrazole-5-carboxylic acid] | – | chromatographic logP [1]: 3.07
6 | N#CC1(NC(=O)c2cc(N)ccc2Cl)CC1 [5-Amino-2-chloro-N-(1-cyanocyclopropyl)benzamide] | – | chromatographic logP [1]: 0.82
7 | CCOC(=O)c1c(Cl)c(C2(Cl)CC2)nn1C [Ethyl 4-chloro-3-(1-chlorocyclopropyl)-1-methyl-1H-pyrazole-5-carboxylate] | – | chromatographic logP [1]: 3.52
8 | CCOC(=O)c1c(Cl)c(C2(F)CC2)nn1C [Ethyl 4-chloro-3-(1-fluorocyclopropyl)-1-methyl-1H-pyrazole-5-carboxylate] | – | chromatographic logP [1]: 3.07
9 | Cn1nc(C(F)(F)F)c(C(F)(F)F)c1C(=O)Nc1cc(Br)c(Br)c(C(=O)NC2(C#N)CC2)c1 [Example 11] | 3.30 | –
10 | Cn1nc(C(F)(F)F)c(C(F)(F)F)c1C(=O)Nc1cc(Cl)c(Br)c(C(=O)NC2(C#N)CC2)c1 [Example 12] | 3.27 | –
11 | Cn1nc(C(F)(F)C(F)(F)F)c(C(F)(F)F)c1C(=O)Nc1cc(Br)c(Cl)c(C(=O)NC2(C#N)CC2)c1 [Example 13] | 3.67 | –
12 | CCC(=O)N(C(=O)c1cc(NC(=O)c2c(C(F)(F)F)c(C(F)(F)C(F)(F)F)nn2C)ccc1Cl)C1(C#N)CC1 [Example 15] | 4.17 | –
13 | Cn1nc(C(F)(F)C(F)(F)F)c(C(F)(F)F)c1C(=O)Nc1cc(Cl)c(Br)c(C(=O)NC2(C#N)CC2)c1 [Example 16] | 3.73 | –
14 | Cn1nc(C2(F)CC2)c(Cl)c1C(=O)Nc1ccc(Cl)c(C(=O)NC2(C#N)CC2)c1 [Example 17] | 2.50 | –
15 | CC(=O)N(C(=O)c1c(C(F)(F)F)c(C(F)(F)C(F)(F)F)nn1C)c1ccc(Cl)c(C(=O)N(C(C)=O)C2(C#N)CC2)c1 [Example 18] | 4.04 | –
16 | COC(=O)N(C(=O)c1c(C(F)(F)F)c(C(F)(F)C(F)(F)F)nn1C)c1ccc(Cl)c(C(=O)NC2(C#N)CC2)c1 [Example 19] | 3.69 | –
17 | CCOC(=O)N(C(=O)c1c(C(F)(F)F)c(C(F)(F)C(F)(F)F)nn1C)c1ccc(Cl)c(C(=O)NC2(C#N)CC2)c1 [Example 20] | 3.95 | –
18 | COC(=O)N(C(=O)c1c(C(F)(F)F)c(C(F)(F)C(F)(F)F)nn1C)c1ccc(Cl)c(C(=O)N(C(=O)OC)C2(C#N)CC2)c1 [Example 21] | 4.32 | –
19 | CCOC(=O)N(C(=O)c1c(C(F)(F)F)c(C(F)(F)C(F)(F)F)nn1C)c1ccc(Cl)c(C(=O)N(C(=O)OCC)C2(C#N)CC2)c1 [Example 22] | 4.80 | –
20 | Cn1nc(C(F)(F)C(F)(F)F)c(C(F)(F)F)c1C(=O)N(C(=O)C(C)(C)C)c1ccc(Cl)c(C(=O)NC2(C#N)CC2)c1 [Example 23] | 4.40 | –
21 | Cc1cc(NC(=O)c2c(C(F)(F)F)c(C(F)(F)C(F)(F)F)nn2C)cc(C(=O)NC2(C#N)CC2)c1Cl [Example 24] | 3.51 | –
22 | C#CCN(C(=O)c1c(C(F)(F)F)c(C(F)(F)C(F)(F)F)nn1C)c1ccc(Cl)c(C(=O)NC2(C#N)CC2)c1 [Example 26] | 3.41 | –
23 | Cn1nc(C(F)(F)C(F)(F)F)c(C(F)(F)F)c1C(=O)Nc1ccc(F)c(C(=O)NC2(C#N)CC2)c1 [Example 27] | 3.21 | –
24 | Cn1nc(C(F)(F)C(F)(F)F)c(C(F)(F)F)c1C(=O)N(Cc1ccc(Cl)cc1)c1ccc(Cl)c(C(=O)NC2(C#N)CC2)c1 [Example 28] | 4.30 | –
25 | CC(C)C(=O)N(C(=O)c1c(C(F)(F)F)c(C(F)(F)C(F)(F)F)nn1C)c1ccc(Cl)c(C(=O)NC2(C#N)CC2)c1 [Example 29] | 4.38 | –
26 | CC#CCN(C(=O)c1c(C(F)(F)F)c(C(F)(F)C(F)(F)F)nn1C)c1ccc(Cl)c(C(=O)NC2(C#N)CC2)c1 [Example 30] | 3.60 | –

Row | SMILES | logP | also measured
27 | Cn1nc(C(F)(F)C(F)(F)F)c(C(F)(F)F)c1C(=O)N(Cc1ccccc1)c1ccc(Cl)c(C(=O)NC2(C#N)CC2)c1 [Example 31] | 3.97 | –
28 | Cn1nc(C(F)(F)C(F)(F)F)c(C(F)(F)F)c1C(=O)N(Cc1ccccn1)c1ccc(Cl)c(C(=O)NC2(C#N)CC2)c1 [Example 32] | 3.53 | –
29 | CCC(=O)N(C(=O)c1c(C(F)(F)F)c(C(F)(F)C(F)(F)F)nn1C)c1ccc(Cl)c(C(=O)NC2(C#N)CC2)c1 [Example 33] | 3.91 | –
30 | CCn1nc(C(F)(F)C(F)(F)F)c(C(F)(F)F)c1C(=O)Nc1ccc(Cl)c(C(=O)NC2(C#N)CC2)c1 [Example 34] | 3.53 | –
31 | CCCn1nc(C(F)(F)C(F)(F)F)c(C(F)(F)F)c1C(=O)Nc1ccc(Cl)c(C(=O)NC2(C#N)CC2)c1 [Example 35] | 3.87 | –
32 | CCCn1nc(C(F)(F)C(F)(F)F)c(C(F)(F)F)c1C(=O)Nc1ccc(F)c(C(=O)NC2(C#N)CC2)c1 [Example 36] | 3.74 | –
33 | CCn1nc(C(F)(F)C(F)(F)F)c(C(F)(F)F)c1C(=O)Nc1ccc(F)c(C(=O)NC2(C#N)CC2)c1 [Example 37] | 3.44 | –
34 | CCn1nc(C(F)(F)C(F)(F)F)c(C(F)(F)F)c1C(=O)N(C)c1ccc(Cl)c(C(=O)NC2(C#N)CC2)c1 [Example 38] | 3.57 | –
35 | CC(=O)N(C(=O)c1cc(NC(=O)c2c(C(F)(F)F)c(C(F)(F)C(F)(F)F)nn2C)ccc1Cl)C1(C#N)CC1 [Example 40, N-{3-[Acetyl(1-cyanocyclopropyl)carbamoyl]-4-chlorophenyl}-1-methyl-3-(pentafluoroethyl)-4-(trifluoromethyl)-1H-pyrazole-5-carboxamide] | – | chromatographic logP [1]: 3.81; chromatographic logP [2]: 3.81
36 | CCn1nc(C(F)(F)C(F)(F)F)c(C(F)(F)F)c1C(=O)N(C)c1ccc(Cl)c(C(=O)N(C)C2(C#N)CC2)c1 [Example 41] | 3.85 | –
37 | CSc1c(C(F)(F)C(F)(F)F)nn(C)c1C(=O)Nc1ccc(Cl)c(C(=O)NC2(C#N)CC2)c1 [Example 42] | 3.43 | –
38 | CCN(C(=O)c1c(C(F)(F)F)c(C(F)(F)C(F)(F)F)nn1CC)c1ccc(Cl)c(C(=O)NC2(C#N)CC2)c1 [Example 43] | 3.68 | –
39 | Cn1nc(C(F)(F)C(F)(F)F)c(C(F)(F)F)c1C(=O)N(CC#N)c1ccc(Cl)c(C(=O)NC2(C#N)CC2)c1 [Example 44] | 3.25 | –
40 | Cn1nc(C(F)(F)C(F)(F)F)c([S+](C)[O-])c1C(=O)Nc1ccc(Cl)c(C(=O)NC2(C#N)CC2)c1 (centres unmarked) [Example 45] | 2.91 | –
41 | CCCn1nc(C(F)(F)C(F)(F)F)c(C(F)(F)F)c1C(=O)N(C)c1ccc(Cl)c(C(=O)N(C)C2(C#N)CC2)c1 [Example 46] | 4.26 | –
42 | CCCn1nc(C(F)(F)C(F)(F)F)c(C(F)(F)F)c1C(=O)N(C)c1ccc(F)c(C(=O)N(C)C2(C#N)CC2)c1 [Example 47] | 4.05 | –
43 | CCn1nc(C(F)(F)C(F)(F)F)c(C(F)(F)F)c1C(=O)N(C)c1ccc(F)c(C(=O)N(C)C2(C#N)CC2)c1 [Example 48] | 3.76 | –
44 | Cn1nc(C(F)(F)C(F)(F)F)c(S(C)(=O)=O)c1C(=O)Nc1ccc(Cl)c(C(=O)NC2(C#N)CC2)c1 [Example 49] | 2.47 | –
45 | CCCn1nc(C(F)(F)C(F)(F)F)c(C(F)(F)F)c1C(=O)N(CC)c1ccc(Cl)c(C(=O)NC2(C#N)CC2)c1 [Example 50, N-{4-Chloro-3-[(1-cyanocyclopropyl)carbamoyl]phenyl}-N-ethyl-3-(pentafluoroethyl)-1-propyl-4-(trifluoromethyl)-1H-pyrazole-5-carboxamide] | – | chromatographic logP [1]: 4.06; chromatographic logP [2]: 4.06
46 | CCCn1nc(C(F)(F)C(F)(F)F)c(C(F)(F)F)c1C(=O)N(CC)c1ccc(Cl)c(C(=O)N(CC)C2(C#N)CC2)c1 [Example 51] | 4.68 | –
47 | CCN(C(=O)c1c(C(F)(F)F)c(C(F)(F)C(F)(F)F)nn1CC)c1ccc(Cl)c(C(=O)N(CC)C2(C#N)CC2)c1 [Example 52] | 4.26 | –
48 | CC(=O)N(C(=O)c1c(C(F)(F)F)c(C(F)(F)C(F)(F)F)nn1C)c1ccc(Cl)c(C(=O)NC2(C#N)CC2)c1 [Example 53] | 3.63 | –
49 | Cn1nc(C(F)(F)C(F)(F)F)c(C(F)(F)F)c1C(=O)N(Cc1cccnc1)c1ccc(Cl)c(C(=O)NC2(C#N)CC2)c1 [Example 54] | 2.85 | –
50 | C=C(C)CN(C(=O)c1c(C(F)(F)F)c(C(F)(F)C(F)(F)F)nn1C)c1ccc(Cl)c(C(=O)NC2(C#N)CC2)c1 [Example 55] | 3.78 | –
51 | Cn1nc(C(F)(F)C(F)(F)F)c(C(F)(F)F)c1C(=O)N(Cc1ccncc1)c1ccc(Cl)c(C(=O)NC2(C#N)CC2)c1 [Example 56] | 2.52 | –
